{"source": "patent US12703706B2", "about": "“Anthelmintic compounds comprising a thienopyridine structure” (Intervet Inc., priority 2020, dated 2026)", "key": {"Haemonchus contortus": {"test_system": "Haemonchus contortus", "test": "In vivo efficacy against Haemonchus contortus in jirds", "details": "in Meriones unguiculatus, 72 h, read-out: reduction of the Haemonchus contortus count", "protocol": "In Vivo Assay: Efficacy Against Haemonchus contortus in Jirds\nThe jirds were orally infected with approximately 1500 third-stage larvae of Haemonchus contortus. Ten days after infection, the jirds in the treatment groups were treated once either orally or subcutaneously with compounds at a dose of 10 mg per kg bodyweight. For treatment, compounds were dissolved in a mixture of 10% Transcutol, 10% Cremophor EL and 80% physiological sodium chloride solution. Three days after treatment, the jirds were necropsied, and the larvae burden in the stomach was determined. The efficacy was defined as the reduction of the mean larvae count in the infected jirds of the treatment group in comparison to the infected jirds in an untreated control group (negative control)."}, "[1]": {"target": "human Maxi K channel (BK channel), KCNMA1 (KCa1.1) and beta1 (KCNMB1) subunits (Homo sapiens, UniProt Q12791)", "sequence (Q12791 1-1178 isoform Q12791-5)": "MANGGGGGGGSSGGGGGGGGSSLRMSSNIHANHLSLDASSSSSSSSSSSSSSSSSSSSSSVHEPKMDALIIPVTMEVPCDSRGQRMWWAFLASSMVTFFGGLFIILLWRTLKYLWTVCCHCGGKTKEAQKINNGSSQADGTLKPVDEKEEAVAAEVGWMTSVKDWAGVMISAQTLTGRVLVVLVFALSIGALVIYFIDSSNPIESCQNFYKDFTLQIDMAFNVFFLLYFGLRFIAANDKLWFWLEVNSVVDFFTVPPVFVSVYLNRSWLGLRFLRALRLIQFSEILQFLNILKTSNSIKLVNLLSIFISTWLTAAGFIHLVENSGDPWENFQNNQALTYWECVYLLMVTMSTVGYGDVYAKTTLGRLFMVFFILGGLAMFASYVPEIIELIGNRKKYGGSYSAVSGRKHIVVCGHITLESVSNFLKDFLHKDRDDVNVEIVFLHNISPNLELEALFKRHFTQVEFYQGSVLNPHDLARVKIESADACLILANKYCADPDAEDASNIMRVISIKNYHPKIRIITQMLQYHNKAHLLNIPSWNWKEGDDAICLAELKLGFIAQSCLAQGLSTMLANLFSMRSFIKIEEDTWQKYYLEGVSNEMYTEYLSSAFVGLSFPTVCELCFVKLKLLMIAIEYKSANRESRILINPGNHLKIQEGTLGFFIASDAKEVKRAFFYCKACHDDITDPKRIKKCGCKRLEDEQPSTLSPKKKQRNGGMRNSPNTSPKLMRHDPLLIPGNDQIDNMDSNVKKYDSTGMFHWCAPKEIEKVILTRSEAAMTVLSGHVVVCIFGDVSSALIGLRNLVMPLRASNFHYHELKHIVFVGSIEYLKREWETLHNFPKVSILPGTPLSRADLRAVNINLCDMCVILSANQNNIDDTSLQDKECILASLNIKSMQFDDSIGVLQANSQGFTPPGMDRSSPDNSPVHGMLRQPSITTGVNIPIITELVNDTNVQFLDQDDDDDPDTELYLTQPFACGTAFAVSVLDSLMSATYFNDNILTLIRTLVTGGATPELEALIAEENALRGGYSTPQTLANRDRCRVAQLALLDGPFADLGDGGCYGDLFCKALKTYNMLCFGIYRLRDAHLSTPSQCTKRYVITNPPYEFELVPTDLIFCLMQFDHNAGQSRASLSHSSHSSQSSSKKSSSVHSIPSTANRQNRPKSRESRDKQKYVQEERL", "sequence (Q16558 whole entry partner)": "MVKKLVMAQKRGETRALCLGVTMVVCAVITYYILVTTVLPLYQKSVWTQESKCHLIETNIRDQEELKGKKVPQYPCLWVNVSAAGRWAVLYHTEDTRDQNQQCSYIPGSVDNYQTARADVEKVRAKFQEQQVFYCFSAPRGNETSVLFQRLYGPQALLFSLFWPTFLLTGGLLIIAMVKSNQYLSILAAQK", "protocol": "In Vitro Assay: Agonistic Activity at the Human Maxi K Channel (BK Channel)\nA CHO K1 cell line was stably transfected with the KCNMA1 (KCa1.1, U11058) and betal (KCNMB1) subunits of the human Maxi K channel (Ponte et al, Molecular Pharmacology 2012, 81(4), 567-577).\nCells were seeded in microtiter plates (black 384-well MTP, clear bottom) in a concentration of 20,000 cells/well in 25 μl medium and cultured for 20 to 24 hours at 37° C. and 5% CO2. After incubation, 25 μl of FMP-dye Blue-Tyrode's was added to each well and incubated at room temperature for 30 min. Ten minutes after addition of 12.5 μl compound solution, the plates are transferred to the FLIPR for measurement.\nFor the membrane potential measurements, plates were placed in the FLIPR Penta (Molecular Devices). The baseline measurement of the fluorescence was stared for 20 sec (Exc. 510-545 nm, Emm. 565-625 nm). Potential channel opening measurement was started by addition of 25 μl KCl-Tyrode (final assay concentration of the KCl-Tyrode: 70 mM KCl, 2 mM CaCl2, 1 mM MgCl2, 0.8 mM NaH2PO4, 5 mM Glucose, 28 mM Hepes, pH 7.4, including the voltage sensitive dye). The complete measurement takes 150 s.\nEC50 values were determined in triplicate utilizing compound dilution series. The data were determined at least in two independent tests. The data were proceeded by using the ActivityBase XE Runner software (IDBS) for curve fitting and calculation of the half-maximal effective concentration."}, "[2]": {"test_system": "D. immitis microfilaria (L1)", "test": "In vitro assay Dirofilaria immitis L1, motility of microfilaria", "format": "cell-based", "details": "72 h, read-out: EC50 value, Dirofilaria immitis L1, reduction in motility vs DMSO, incubation 3 days"}, "[3]": {"test_system": "A. viteae microfilaria (L1)", "test": "In vitro assay Acanthocheilonema viteae L1, motility of microfilaria", "details": "72 h, read-out: EC50 value, Acanthocheilonema viteae L1, reduction in motility vs DMSO, incubation 3 days", "protocol": "Approximately 500 A. viteae microfilaria were added to a microtiter plate containing a nutrient medium and the test compound in DMSO at varying concentrations. After incubation for 3 days, activity was evaluated as reduction in motility as compared to DMSO as negative control.\nCompounds were tested in duplicates. Based on the concentration response curves EC50 values were calculated."}}}
{"smiles": "CN(C)c1c(C(=O)N[C@H]2CCOc3ccccc32)cnc2c(-c3cccc(Cl)c3Cl)csc12", "note": "[Compound 10]", "values": [{"measurement": "inhibition in vivo at 10 mg/kg", "setting": "Haemonchus contortus", "result": "≥ 80", "unit": "%"}, {"measurement": "EC50", "setting": "[1]", "result": "> 30", "unit": "µM"}]}
{"smiles": "O=C(Nc1cccc2ccccc12)c1cnc2c(-c3cccc(Cl)c3Cl)csc2c1N1CCOCC1", "note": "[Compound 14]", "values": [{"measurement": "EC50", "setting": "[2]", "result": "< 10", "unit": "µM"}, {"measurement": "EC50", "setting": "[1]", "result": "> 30", "unit": "µM"}]}
{"smiles": "CN1CCN(c2c(C(=O)N[C@H]3CCOc4ccccc43)cnc3c(-c4cccc(Cl)c4Cl)csc23)CC1", "note": "[Compound 17]", "values": [{"measurement": "EC50", "setting": "[2]", "result": "< 10", "unit": "µM"}, {"measurement": "EC50", "setting": "[3]", "result": "< 10", "unit": "µM"}, {"measurement": "EC50", "setting": "[1]", "result": "> 30", "unit": "µM"}]}
{"smiles": "Cc1sc2c(N(C)C)c(C(=O)N[C@H]3CCOc4ccccc43)cnc2c1-c1cccc(Cl)c1Cl", "note": "[Compound 36, (S)—N-(chroman-4-yl)-3-(2,3-dichlorophenyl)-7-dimethylamino-2-methylthieno[3,2-b]pyridine-6-carboxamide]", "values": [{"measurement": "inhibition in vivo at 10 mg/kg", "setting": "Haemonchus contortus", "result": "≥ 80", "unit": "%"}, {"measurement": "EC50", "setting": "[1]", "result": "> 30", "unit": "µM"}]}
{"smiles": "Cc1sc2c(N(C)C)c(C(=O)N[C@H]3CCOc4ccccc43)cnc2c1-c1cc(Cl)cc(Cl)c1", "note": "[Compound 53]", "values": [{"measurement": "inhibition in vivo at 10 mg/kg", "setting": "Haemonchus contortus", "result": "≥ 80", "unit": "%"}, {"measurement": "EC50", "setting": "[1]", "result": "> 30", "unit": "µM"}]}
{"smiles": "Cc1sc2c(N3CC(F)(F)C3)c(C(=O)N[C@H]3CCOc4ccccc43)cnc2c1-c1cccc(Cl)c1Cl", "note": "[Compound 56]", "values": [{"measurement": "inhibition in vivo at 10 mg/kg", "setting": "Haemonchus contortus", "result": "≥ 80", "unit": "%"}, {"measurement": "EC50", "setting": "[1]", "result": "> 30", "unit": "µM"}]}
{"smiles": "Cc1sc2c(N3CC(F)C3)c(C(=O)N[C@H]3CCOc4ccccc43)cnc2c1-c1cccc(Cl)c1Cl", "note": "[Compound 62]", "values": [{"measurement": "inhibition in vivo at 10 mg/kg", "setting": "Haemonchus contortus", "result": "≥ 80", "unit": "%"}, {"measurement": "EC50", "setting": "[1]", "result": "> 30", "unit": "µM"}]}
{"smiles": "Cc1sc2c(N3CC(F)C3)c(C(=O)N[C@H]3CCOc4ccccc43)cnc2c1-c1cc(Cl)cc(Cl)c1", "note": "[Compound 65]", "values": [{"measurement": "inhibition in vivo at 10 mg/kg", "setting": "Haemonchus contortus", "result": "≥ 80", "unit": "%"}, {"measurement": "EC50", "setting": "[1]", "result": "> 30", "unit": "µM"}]}
{"smiles": "Cc1sc2c(N3CCOCC3)c(C(=O)N[C@H]3CCOc4ccccc43)cnc2c1-c1cc(Cl)cc(Cl)c1", "note": "[Compound 68]", "values": [{"measurement": "inhibition in vivo at 10 mg/kg", "setting": "Haemonchus contortus", "result": "≥ 80", "unit": "%"}, {"measurement": "EC50", "setting": "[1]", "result": "> 30", "unit": "µM"}]}
{"smiles": "Cc1sc2c(N3CCOCC3)c(C(=O)N[C@H]3CCOc4ccccc43)cnc2c1-c1cccc(Cl)c1Cl", "note": "[Compound 72]", "values": [{"measurement": "inhibition in vivo at 10 mg/kg", "setting": "Haemonchus contortus", "result": "≥ 80", "unit": "%"}, {"measurement": "EC50", "setting": "[1]", "result": "> 30", "unit": "µM"}]}
{"smiles": "O=C(NC1COc2ccccc21)c1cnc2c(-c3cccc(Cl)c3)csc2c1N1CCOCC1", "note": "(stereo not drawn) [Compound 80]", "values": [{"measurement": "EC50", "setting": "[2]", "result": "< 10", "unit": "µM"}, {"measurement": "EC50", "setting": "[1]", "result": "> 30", "unit": "µM"}]}
{"smiles": "Cc1sc2c(N(C)C)c(C(=O)N[C@H]3CCOc4ccccc43)cnc2c1-c1cc(F)cc(F)c1F", "note": "[Compound 102]", "values": [{"measurement": "inhibition in vivo at 10 mg/kg", "setting": "Haemonchus contortus", "result": "≥ 80", "unit": "%"}, {"measurement": "EC50", "setting": "[1]", "result": "> 30", "unit": "µM"}]}
{"smiles": "Cc1sc2c(N3CCOCC3)c(C(=O)N[C@H]3CCc4ccccc43)cnc2c1-c1cccc(C(F)(F)F)c1", "note": "[Compound 112]", "values": [{"measurement": "EC50", "setting": "[1]", "result": "> 30", "unit": "µM"}]}
{"smiles": "Cc1sc2c(N3CCOCC3)c(C(=O)N[C@H]3CCc4ccccc43)cnc2c1-c1cccc(OC(F)(F)F)c1", "note": "[Compound 113]", "values": [{"measurement": "EC50", "setting": "[1]", "result": "> 30", "unit": "µM"}]}
